According to patent US9624198B2, “Substituted piperidinyltetrahydroquinolines” (Bayer Pharma Aktiengesellschaft, priority 2013, dated 2017):

Tests used:
[1] = test system: diabetic (ZDFfa/fa) and healthy rats (Wistar); experiment: Assay of perfusion-enhancing substances (microcirculation), laser doppler probe at the paw; type: in vivo, rat; details: single oral dose; for MED skin temperature: minimum effective dose for significant increase of skin temperature (ttest); for MED microcirculation: minimum effective dose with significantly improved microcirculation vs placebo; for MED microcirculation / factor by which microcirculation is improved at MED compared to placebo: 30 min after administration; for factor by which microcirculation is improved at MED compared to placebo: at the MED
Text: B-2e) Assay of Perfusion-Enhancing Substances (Microcirculation)
In diabetic (ZDFfa/fa) and healthy rats (Wistar), a laser doppler probe was fastened under anaesthesia conditions (isoflurane anaesthesia) at the sole of the paw for measuring cutaneous microcirculation. The test animals were once treated orally with the test substances. During the experiment, microperfusion and temperature of the lower extremities were documented continuously. Here, a temperature-sensitive laser doppler probe (Periflux, O2C) was fastened with adhesive to the paws of the animals, allowing the measurement of microperfusion and skin temperature. The microcirculation measurement values were measured on both paws 30 min after oral administration of the test substance. […] Also stated is the MED for the significant increase of skin temperature (ttest).
Microcirculation data for adrenoreceptor α2c antagonist of Example 8 and for the comparative substance ORM12741, an AR α2c antagonist from Orion, are shown in Table 2: […]

human α2C receptor = human α2C receptor (Homo sapiens (Human), UniProt P18825); experiment: Antagonism against adrenoreceptor α2C (luminescence, recombinant CHO cell line, noradrenaline stimulation); type: cell-based; details: 20 nM noradrenaline
Procedure: B-1a) Antagonism Against Adrenoreceptors
Antagonism against the adrenoreceptor α1A was tested using a recombinant human α1A receptor CHO cell line which additionally also recombinantly expresses mtAeq (mitochondrial aequorin). Antagonism against the adrenoreceptor α2A was tested using a recombinant human α2A-Gα16 receptor fusion protein CHO cell line (PerkinElmer Life Sciences) which additionally also recombinantly expresses mtAeq. Antagonism against the adrenoreceptor α2B was tested using a recombinant human α2B receptor CHO cell line (PerkinElmer Life Sciences) which additionally also recombinantly expresses mtAeq. Antagonism against the adrenoreceptor α2C was tested using a recombinant human α2C receptor CHO cell line which additionally also recombinantly expresses a chimaric G protein (Gαqi3) and mtOb (mitochondrial obelin).
The cells were cultivated at 37° C. and 5% CO2 in Dulbecco's modified Eagle's Medium/NUT mix F12 with L-glutamine which additionally contains 10% (v/v) inactivated foetal calf serum, 1 mM sodium pyruvate, 0.9 mM sodium bicarbonate, 50 U/ml penicillin, 50 μg/ml streptomycin, 2.5 μg/ml amphotericin B and 1 mg/ml Geneticin. The cells were passaged with enzyme-free Hank's-based cell dissociation buffer. All cell culture reagents used were from Invitrogen (Carlsbad, USA).
Luminescence measurements were carried out on white 384-well microtitre plates. 2000 cells/well were plated in a volume of 25 μl and cultivated for one day at 30° C. and 5% CO2 in cell culture medium with coelenterazine (α2A and α2B: 5 μg/ml; α1a/c and α2C: 2.5 μg/ml). Serial dilutions of the test substances (10 μl) were added to the cells. After 5 minutes, noradrenaline was added to the cells (35 μl; final concentrations: 20 nM (α1a/c, and α2C) or 200 nM (α2A and α2B)), and the emitted light was measured for 50 seconds using a CCD (charge-coupled device) camera (Hamamatsu Corporation, Shizuoka, Japan) in a light-tight box. The test substances were tested up to a maximum concentration of […] The IC50 values were calculated from the appropriate dose-response curves.

[2] = test system: conscious female Wistar rats; experiment: Radiotelemetric measurement of blood pressure and heart rate of conscious rats; type: in vivo, rat
Text: B-2l) Radiotelemetric Measurement of Blood Pressure and Heart Rate of Conscious Rats
A commercially available telemetry system from Data Sciences International DSI, USA, was employed for the measurements on conscious rats described below. The system consists of 3 main components: (1) implantable transmitters (Physiotel® telemetry transmitter), (2) receivers (Physiotel® receiver), which are linked via a multiplexer (DSI Data Exchange Matrix) to a (3) data acquisition computer. The telemetry system makes it possible to continuously record blood pressure, heart rate and body motion of conscious animals in their usual habitat.
The studies were conducted on adult female Wistar rats with a body weight of >200 g. After transmitter implantation, the experimental animals were housed singly in type III Makrolon® cages. They had free access to standard feed and water. The day/night rhythm in the test laboratory was set by changing the illumination of the room.
The telemetry transmitters used (PA-C40, DSI) were surgically implanted under aseptic conditions in the experimental animals at least 14 days before the first experimental use. […]
Each of the instrumented rats living in the system was assigned a separate receiving antenna (RPC-1 Receiver, DSI). […] The signals emitted were detected online by a data acquisition system (Dataquest™ A.R.T. for Windows, DSI) and processed accordingly.
In the standard procedure, the following were measured for 10-second periods in each case: (1) systolic blood pressure (SBP), (2) diastolic blood pressure (DBP), (3) mean arterial pressure (MAP) and (4) heart rate (HR) and (5) activity (ACT). These parameters were measured over 24 hours after administration.
The acquisition of measurements was repeated under computer control at 5-minute intervals. The source data obtained as absolute values were corrected in the diagram with the currently measured barometric pressure (Ambient Pressure Reference Monitor, APR-1, DSI). […]

Sequence of human α2C receptor (P18825 whole entry): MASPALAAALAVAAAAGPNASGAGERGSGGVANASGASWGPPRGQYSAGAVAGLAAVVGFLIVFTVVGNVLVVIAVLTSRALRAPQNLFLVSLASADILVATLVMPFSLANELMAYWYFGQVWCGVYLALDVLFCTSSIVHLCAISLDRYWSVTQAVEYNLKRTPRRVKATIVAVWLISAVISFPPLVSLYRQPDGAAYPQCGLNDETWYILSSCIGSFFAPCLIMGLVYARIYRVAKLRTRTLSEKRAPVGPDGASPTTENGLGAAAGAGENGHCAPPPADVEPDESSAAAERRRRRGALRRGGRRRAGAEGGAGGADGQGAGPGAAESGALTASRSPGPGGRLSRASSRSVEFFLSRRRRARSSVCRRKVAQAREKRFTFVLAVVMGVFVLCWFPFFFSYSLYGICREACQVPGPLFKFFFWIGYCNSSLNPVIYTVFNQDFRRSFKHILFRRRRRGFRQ

With `COCCNc1ccc(C(=O)N2CCC(N3CCc4ccccc4C3)CC2)cn1` [Example 1, [4-(3,4-Dihydroisoquinolin-2-(1H)-yl)piperidin-1-yl]{6-[(2-methoxyethyl)amino]pyridin-3-yl}-methanone] the MED skin temperature [1] was 1 mg/kg, the MED microcirculation [1] was 1 mg/kg and the “factor by which microcirculation is improved at MED compared to placebo” value (from here on “factor … compared to placebo”) [1] was 1.8 ×. It also gave an IC50 (human α2C receptor) of 22 nM.
For `COCCNc1ccc(C(=O)N2CCC(N3CCc4ccc(F)cc4C3)CC2)cn1` [Example 2, [4-(7-Fluoro-3,4-dihydroisoquinolin-2(1H)-yl)piperidin-1-yl]{6-[(2-methoxyethyl)amino]pyridin-3-yl}methanone], the IC50 (human α2C receptor) was 13 nM.
In the case of `O=C(c1ccc(N2CCOCC2)nc1)N1CCC(N2CCc3ccccc3C2)CC1` [Example 3, [4-(3,4-Dihydroisoquinolin-2(1H)-yl)piperidin-1-yl][6-(morpholin-4-yl)pyridin-3-yl]methanone], the IC50 (human α2C receptor) is reported as 9 nM.
`O=C(c1ccc(N2CCS(=O)(=O)CC2)nc1)N1CCC(N2CCc3ccccc3C2)CC1` [Example 4, [4-(3,4-Dihydroisoquinolin-2(1H)-yl)piperidin-1-yl][6-(1,1-dioxidothiomorpholin-4-yl)pyridin-3-yl]methanone] was tested, and the MED skin temperature [1] was 0.1 mg/kg, the MED microcirculation [1] was 0.1 mg/kg and the “factor … compared to placebo” value [1] was 2.4 ×. The IC50 (human α2C receptor) was 24 nM, the “haemodynamic effects (blood pressure, heart rate)” value ([2]; conscious rats, oral administration, 24 hours telemetry) was “no haemodynamic effects” and the heart rate ([2]; oral dose of 3 and 10 mg/kg) was “slight transient increase in the heart rate”.
In the case of `COC[C@H]1CCCN1c1ccc(C(=O)N2CCC(N3CCc4ccccc4C3)CC2)cn1` [Example 5, [4-(3,4-Dihydroisoquinolin-2(1H)-yl)piperidin-1-yl]{6-[(2R)-2-(methoxymethyl)pyrrolidin-1-yl]pyridin-3-yl}methanone], the IC50 (human α2C receptor) is reported as 65 nM.
`O=C(O)[C@H]1CCCN1c1ccc(C(=O)N2CCC(N3CCc4ccccc4C3)CC2)cn1` [Example 6, 1-(5-{[4-(3,4-Dihydroisoquinolin-2(1H)-yl)piperidin-1-yl]carbonyl}pyridin-2-yl)-D-proline] was tested, and the MED skin temperature [1] was “no effect”, the MED microcirculation [1] was “no effect” and the “factor … compared to placebo” value [1] was at most 1.3 ×. For the same molecule, the IC50 (human α2C receptor) was 27 nM.
`CC[C@@H](CO)Nc1ccc(C(=O)N2CCC(N3CCc4ccccc4C3)CC2)cn1` [Example 7, [4-(3,4-Dihydroisoquinolin-2(1H)-yl)piperidin-1-yl](6-{[(2S)-1-hydroxybutan-2-yl]amino}pyridin-3-yl)methanone] gave an IC50 (human α2C receptor) of 21 nM.
`COC1CCN(c2ccc(C(=O)N3CCC(N4CCc5cc(F)ccc5C4)CC3)cn2)C1` (centres unmarked) [Example 8, [4-(6-Fluoro-3,4-dihydroisoquinolin-2(1H)-yl)piperidin-1-yl][6-(3-methoxypyrrolidin-1-yl)pyridin-3-yl]methanone] showed an IC50 (human α2C receptor) of 58 nM.
`COc1ccc2c(c1)CCN(C1CCN(C(=O)c3ccc(N4CCC(OC)C4)nc3)CC1)C2` (centres unmarked) [Example 9, [4-(6-Methoxy-3,4-dihydroisoquinolin-2(1H)-yl)piperidin-1-yl][6-(3-methoxypyrrolidin-1-yl)pyridin-3-yl]methanone] was tested, and the IC50 (human α2C receptor) was 11 nM.
For `O=C(c1ccc(N2CC3(COC3)C2)nc1)N1CCC(N2CCc3ccccc3C2)CC1` [Example 10, [4-(3,4-Dihydroisoquinolin-2(1H)-yl)piperidin-1-yl][6-(2-oxa-6-azaspiro[3.3]hept-6-yl)pyridin-3-yl]methanone], the MED skin temperature [1] was 0.03 mg/kg, the MED microcirculation [1] was 0.03 mg/kg and the “factor … compared to placebo” value [1] was 2.1 ×.
For `CC1CN(c2ccc(C(=O)N3CCC(N4CCc5ccccc5C4)CC3)cn2)CC(C)O1` (centres unmarked) [Example 11, [4-(3,4-Dihydroisoquinolin-2(1H)-yl)piperidin-1-yl][6-(2,6-dimethylmorpholin-4-yl)pyridin-3-yl]methanone], the IC50 (human α2C receptor) was 11 nM.
In the case of `CC1CN(c2ccc(C(=O)N3CCC(N4CCc5ccccc5C4)CC3)cn2)CC(C)O1` (centres unmarked) [Example 12, [4-(3,4-Dihydroisoquinolin-2(1H)-yl)piperidin-1-yl][6-(2,6-dimethylmorpholin-4-yl)pyridin-3-yl]methanone], the IC50 (human α2C receptor) is reported as 21 nM.
`CC1(C)CN(c2ccc(C(=O)N3CCC(N4CCc5ccccc5C4)CC3)cn2)CCO1` [Example 13, [4-(3,4-Dihydroisoquinolin-2(1H)-yl)piperidin-1-yl][6-(2,2-dimethylmorpholin-4-yl)pyridin-3-yl]methanone] showed an IC50 (human α2C receptor) of 53 nM.
`O=C(c1ccc(N2CCOC(C(F)(F)F)C2)nc1)N1CCC(N2CCc3ccccc3C2)CC1` (centres unmarked) [Example 14, [4-(3,4-Dihydroisoquinolin-2(1H)-yl)piperidin-1-yl]{6-[2-(trifluoromethyl)morpholin-4-yl]pyridin-3-yl}methanone] showed an IC50 (human α2C receptor) of 23 nM.
For `O=C(c1ccc(N2CC3(C2)CS(=O)(=O)C3)nc1)N1CCC(N2CCc3ccccc3C2)CC1` [Example 15, [4-(3,4-Dihydroisoquinolin-2(1H)-yl)piperidin-1-yl][6-(2,2-dioxido-2-thia-6-azaspiro[3.3]hept-6-yl)pyridin-3-yl]methanone], the IC50 (human α2C receptor) was 53 nM.
In the case of `COC[C@@]1(C)CCCN2CCc3c(oc4ccccc34)[C@@H]21` [ORM-12741, reference compound], the MED skin temperature [1] is reported as 0.01 mg/kg, the MED microcirculation [1] is reported as 0.1 mg/kg and the “factor … compared to placebo” value [1] is reported as 1.9 ×. The blood pressure ([2]; 10 mg/kg, oral) was “additional reduction in blood pressure”.
